The values below come from patent publication US8389468B2, “Approach to the treatment of compartment syndrome” (Lantmannen AS-Faktor AB, priority 2006, dated 2013).

Assay [1] deals with Musculus extensor digitorum longus (EDL). Nature of the assay: Ischemic injury of skeletal muscle (EDL), compartment pressure. Format: in vivo, rat. The procedure:
On the hind leg, the large vessels entering the Musculus extensor digitorum longus (EDL) were occluded for 1-3 hours by applying external pressure load (Cf. Jennische & Hansson, 1987; Jennische, Skottner & Hansson, 1987). Thereafter, the blood flow was allowed to resume, and the muscle enclosures and the skin incision repaired and sutured. […] A CS developed as the tissue and the interstitial tissue accumulated fluid in such a closed compartment and additionally the muscle tissue turned swollen and oedematous. The pressure within such an enclosed compartment increased, resulting in the development of a CS. Surgical intervention was required to prevent that parts of the skeletal muscle tissue became necrotic, if there was no additional treatment. […] Thus, treatment with AF-16 prevented the development of a CS, eventually reducing the tissue damage and loss.

Assay [2] relates to inflammation markers IL-1, IL-6, and TNF-a. Description: Inflammation markers in CSF of HSV-1 infected rats. The class given is in vivo, rat. The following applies: day 6, 1 or 10 pg intranasally twice daily, n=3. On the procedure: To test that hypothesis, adult rats were infected by having a solution of the herpes simplex virus type 1 (HSV-1; strain 2762, batch 041028; 1.7×10^7 PFU/mL) instilled in their right nostril. Half of the animals received 10 min later 25 μL (1 or 10 pg) of AF-16 in their right nostril, and had thereafter the same dose of AF-16 instilled every morning at 8 AM and every night at 6 PM until the experiment was terminated on day 6. The other half of the HSV-1 infected rats received at the same time intervals 25 μL of the vehicle, phosphate buffered saline. On day 6, cerebrospinal fluid (CSF) samples were taken from the animals, either treated with AF-16 (n=3), or the vehicle (n=3), according to the procedure described by Huang, Saljo and Hansson (1996). […] It is concluded that treatment with AF-16 is not likely to improve the survival of rodents suffering from HSV-1 encephalitis by altering the inflammatory response, but by normalizing the intracranial pressure, thereby preventing prevalence of high ICP in a CC and thereby the development of a CS. The deleterious effects caused by the HSV-1 encephalitis were thus considered to be due to that AF hampered the development of a CS.

Assay [3] deals with liver, spleen, kidney and thyroid. Nature of the assay: Mechanical injury of liver, spleen, kidney and thyroid. The following applies: compression and abrasion, vs vehicle. The class given is in vivo, rat. An excerpt: The liver, spleen, kidney and thyroid were similarly mechanically injured by compression and exposed to abrasion. […] Further the prevalence of ascites and related types of excessive extracellular fluid at elevated pressure was reduced. Thus AF-16 reduced the extent and severity of the CS in parenchymatous organs and tissues.

Assay [4] concerns implanted tumours. Description: Interstitial fluid pressure (IFP) in implanted tumours. Format: in vivo, rodents. On the procedure:
Tumours, malignant as well as benign, have been implanted subcutaneously and intramuscularly in rodents. Every second animal, having tumours with a diameter ranging from 10 mm to 15 mm, was treated with AF proteins or AF-16, systemically with the aid of subcutaneously implanted Alzet osmotic minipumps, by injections of AF-16 at or into the tumour. In another experiment, the AF-16 peptide was delivered from an implanted Alzet 2001 pump directly onto and/or into the tumour with a fine silicone tube. Additional rats had the AF-protein induced by their feed ort by having AF in egg yolk. For comparison, an equal number of rats received the same treatment but with the vehicle. The interstitial fluid pressure (IFP) in the tumour as well as at its adjacent regions was determined with the aid of a Samba glass fibre pressure sensor (diameter 0.4 mm), with and without a protecting tubing, as well as with equipment enabling determination of the interstitial fluid pressure by the “wick” technique. […] The IFP in the adjacent connective tissue was ranging from 0 to 4 mm Hg, but could occasionally be negative. Tumours in the range of 10-15 mm, and treated with AF-16 as described above, got a reduction of the IFP, which turned reduced to usually 12 mm Hg or less.

Assay [5] relates to Staphylococcus areus. Nature of the assay: Yellow pigment retained in cultured Staphylococcus areus. The following applies: cultured over night or 2 days with AF-16, vs vehicle. The class given is cell-based. From the text:
Effects of AF was investigated in addition in prokaryotic cells, which are enclosed by a complex cell wall, thereby enabling the development of elevated pressure due to hampered membrane functions. That was done in bacteria, which synthesize and release a wide variety of substances that may cause damage to mammalian cells and thus to a body. Examples on such products are pigments, enzymes and toxins, which are transferred through the outer bacterial membrane to the extracellular environment. Inhibition of such membrane activities would reduce or even block the transfer and/or release of such pathogenic substances. In order to investigate if the peptide AF-16 affected the transfer of bacterial products from its synthesis in the bacterium to its environment, the following experiment was performed. The bacterium Staphylococcus areus, which synthesize a yellow pigment, was cultured over night or, occasionally for 2 days, in the presence or absence of the peptide AF-16. After a day or two was the bacterial culture rinsed, and then concentrated by centrifugation. The yellow pigment formed by the Staphylococcus areus was extracted from the permeabilized, pelleted bacteria with methanol and the light absorption determined by spectrometry.

Take VCHSKTRSNPENNVGL [AF-16]: the “pressure within the muscle compartment” value in assay [1] (EDL vessels occluded 1-3 hours, Samba pressure sensors) is “turn about normal”. For the same sequence, in assay [1] (vs vehicle), the “extent and volume of muscle tissue damage (light microscopy)” value was “reduced the extent and volume of the tissue damage”. Moreover, in assay [2], the “IL-1 concentration in CSF vs vehicle” value is “no significant difference in the concentrations”, the “IL-6 concentration in CSF vs vehicle” value is on record as “no significant difference in the concentrations” and the “TNF-a concentration in CSF vs vehicle” value is “no significant difference in the concentrations”. Besides, in assay [3], the “oedema and swelling of injured organs” value is “reduce the oedema and swelling”. Also, in assay [4] (in vivo), the “inflammatory reaction in tumour (light microscopy)” value is “reduced the intensity and extent of the inflammatory reaction”. The “interstitial fluid pressure (IFP) in the tumour” value in assay [4] (tumours 10-15 mm, vehicle in excess of 12) is reported as no more than 12 mm Hg. The “yellow pigment extracted from bacteria (light absorption), corrected for number of bacteria” value in assay [5] is “much more of the yellow pigment”.
